The assay deals with lectin pathway. Briefly: Lectin pathway-specific ELISA (mannan, C1q-depleted serum, C4b detection). The class given is biochemical, human. The settings on record: single dose 500 µM, triplicate, 2% C1q-depleted serum. On the procedure: Figure 5 Selectivity and mechanistic analysis of CMP-1611 and CMP-1696. (A) Chemical structure of CMP-1611. (B) Chemical structure of CMP-1696. (C) Dose-dependent inhibition by CMP-1611 and CMP-1696 in a classical pathway-specific ELISA. Data were fit with GraphPad Prism using non-linear regression with a log(inhibitor) vs. response model. […] (D) Complement pathway selectivity of CMP-1611 and CMP-1696. Compounds were assessed for their ability to inhibit activation of complement via the lectin and alternative pathways using single doses of 500 µM compound in triplicate. To ensure only lectin pathway activation, 2% (v/v) C1q-depleted serum (CompTech) was used and mannan was used as the activator. To match serum sources and amounts for this assay, the classical pathway assays were repeated here using serum from CompTech at 2% (v/v) final concentration. Alternative pathway activation assays were performed using 20% (v/v) serum (CompTech), alternative pathway buffers, and C3b detection (see Methods and Materials for details). […]
To carry out classical pathway ELISA-based inhibition assays, IgM was dissolved in coating buffer (100 mM Na2CO3/NaHCO3, pH 9.6) to a final concentration of 3 µg/mL and was dispensed into 96-well plates at 100 µL per well. […] The reaction was stopped with 50 µL of 0.16 M sulfuric acid, and the plate was read at 450 nm using an EnSight multimode plate reader (Perkin-Elmer). […]
Background: In an ELISA, binding on a coated surface is turned into a signal by an enzyme label.

Consider `CN(C)c1cc(N2CCCC(N)C2)ncn1` (centres unmarked) [CMP-1611], for which the “inhibition of lectin pathway activation” value is reported as “no effect”.

In the case of `COCc1nc(-c2ccc(OC3CNC3)cc2)no1` [CMP-1696], the “inhibition of lectin pathway activation” value is recorded as “blocked”.

For the origin of these results see PMC7504721, “Targeting the Initiator Protease of the Classical Pathway of Complement Using Fragment-Based Drug Discovery” (Molecules, 2020).
